Experiments:
[1] = Physical appearance and form stability at high relative humidity; assay type: physicochemical; settings: for Hygroscopicity [physical appearance at high RH]: 90% RH, RT
[2] = Dynamic vapor sorption (DVS) hygroscopicity; assay type: physicochemical; settings: for Hygroscopicity [DVS], grade in words: DVS 5% to 95% RH; for DVS wt. loss 95% to 5% RH: desorption 95% to 5% RH; for DVS wt. gain 5% to 95% RH / DVS water uptake 5% to 95% RH: sorption 5% to 95% RH; for DVS water uptake 5% to 95% RH / DVS water uptake 5% to 75% RH / DVS water uptake 75% to 95% RH: mol water per mol; for DVS hysteresis: sorption vs desorption; for DVS wt. loss 75% to 5% RH: desorption 75% to 5% RH; for DVS wt. loss 95% to 75% RH: desorption 95% to 75% RH; for DVS wt. gain 5% to 75% RH / DVS water uptake 5% to 75% RH: sorption 5% to 75% RH; for DVS wt. gain 75% to 95% RH / DVS water uptake 75% to 95% RH: sorption 75% to 95% RH
[3] = Brito-da-Costa et al 2020; cited from earlier work
[4] = free base; cited from earlier work

## CN(C)CCc1c[nH]c2ccccc12.O=C(O)/C=C/C(=O)O [DMT Fumarate Form A]
[1]; 7 days
  Hygroscopicity [physical appearance at high RH]: white solid
[2]
  Hygroscopicity [DVS], grade in words: limited
  DVS wt. loss 95% to 5% RH: 0.679% wt.
  DVS wt. gain 5% to 95% RH: 0.573% wt.
  DVS water uptake 5% to 95% RH: (0.1 mol/mol
  DVS hysteresis: hysteresis
[2]; listed as Fumarate A
  Hygroscopicity [DVS], grade in words: Limited hygroscopicity
  DVS wt. loss 95% to 5% RH: 95% to 5%: 0.679% wt. loss some
  DVS wt. gain 5% to 95% RH: 0.573 % wt.
  DVS water uptake 5% to 95% RH: 0.1 mol/mol

## CN(C)CCc1c[nH]c2ccccc12.O=C(O)C[C@H](O)C(=O)O [DMT Malate Form A]
[1]; 7 days
  Hygroscopicity [physical appearance at high RH]: white solid
[2]
  Hygroscopicity [DVS], grade in words: significant
  DVS wt. loss 75% to 5% RH: 1.37% wt. loss
  DVS wt. loss 95% to 75% RH: 9.59% wt. loss
  DVS wt. gain 5% to 75% RH: 1.21% wt. gain
  DVS water uptake 5% to 75% RH: (0.4 mol/mol
  DVS wt. gain 75% to 95% RH: 9.75% wt. gain
  DVS water uptake 75% to 95% RH: (1.7 mol/mol
[2]; listed as Malate A
  Hygroscopicity [DVS], grade in words: Significant hygroscopicity
  DVS wt. loss 75% to 5% RH: 75% to 5%: 1.37% wt loss % wt.
  DVS wt. loss 95% to 75% RH: 95% to 75%: 9.59% wt. loss
  DVS wt. gain 5% to 75% RH: 1.21 % wt.
  DVS water uptake 5% to 75% RH: 0.4 mol/mol
  DVS wt. gain 75% to 95% RH: 9.75 % wt.
  DVS water uptake 75% to 95% RH: 1.7 mol/mol

## CN(C)CCc1c[nH]c2ccccc12.O=C(O)CCC(=O)O [DMT Succinate Form A]
[1]; 7 days
  Hygroscopicity [physical appearance at high RH]: white solid
[1]; after water absorption
  Physical form after water absorption: preservation of the physical form
[2]
  Hygroscopicity [DVS], grade in words: low
  DVS wt. loss 95% to 5% RH: 0.175% wt.
  DVS wt. gain 5% to 95% RH: 0.171% wt.
  DVS water uptake 5% to 95% RH: (0.03 mol/mol
  DVS hysteresis: hysteresis
[2]; listed as DMT succinate Form A
  Hygroscopicity [DVS], grade in words: least hygroscopic
[2]; listed as Succinate A
  Hygroscopicity [DVS], grade in words: Low hygroscopicity
  DVS wt. loss 95% to 5% RH: 95% to 5%: 0.175% wt. loss some
  DVS wt. gain 5% to 95% RH: 0.171 % wt.
  DVS water uptake 5% to 95% RH: 0.03 mol/mol

## CN(C)CCc1c[nH]c2ccccc12.O=S(=O)(O)O [DMT Sulfate Form A]
[1]; 1 day
  Hygroscopicity [physical appearance at high RH]: oil/deliquesced

## CN(C)CCc1c[nH]c2ccccc12 [DMT free base, N,N-dimethyltryptamine]
[3]
  Degradation rate in solution: fast degradation rate
[4]
  Solubility in water: extremely low

From patent US12378194B2, “N, n-dimethyltryptamine salts and crystalline salt forms” (ATAI Therapeutics, Inc., priority 2021, dated 2025)
